Results published in ChEMBL document CHEMBL4196112, “Design of Selective sPLA2-X Inhibitor (-)-2-{2-[Carbamoyl-6-(trifluoromethoxy)-1H-indol-1-yl]pyridine-2-yl}propanoic Acid” (ACS Med Chem Lett, 2018).
In brackets after ≈: the same amount, converted by molar mass.

How the values were obtained:
Mus musculus [1] = test: Toxicity in ApoE knockout pro-atherogenic western diet-induced Tac mouse carotid artery ligation model of atherosclerosis assessed as histopathological changes in lung at 75 to 150 umol/kg/day mixed with food measured for 3 weeks by hematoxylin-eosin staining based assay; assay type: organism-based; conditions: in vivo, po, 504 h
[2] = Half life in human hepatocytes; assay type: ADME, cell-based, Hepatocyte
[3] = target: Voltage-gated inwardly rectifying potassium channel KCNH2 (Homo sapiens, UniProt Q12809); test: Inhibition of human ERG expressed in CHO cells by ionworks patch clamp assay; assay type: cell-based
[4] = Apparent permeability in human Caco2 cells; assay type: ADME, cell-based; conditions: Caco-2
[5] = target: Voltage-dependent T-type calcium channel subunit alpha-1H (Homo sapiens, UniProt O95180); test: Inhibition of human Cav3.2 expressed in CHO cells by ionworks patch clamp assay; assay type: cell-based
Mus musculus [6] = test: Toxicity in ApoE knockout pro-atherogenic western diet-induced Tac mouse carotid artery ligation model of atherosclerosis assessed as histopathological changes in ceacum at 75 to 150 umol/kg/day mixed with food measured for 3 weeks by hematoxylin-eosin staining based assay; assay type: organism-based; conditions: in vivo, po, 504 h
[7] = Volume of distribution at steady state in C57Bl/6J mouse at 10 umol/kg, iv or 50 umol/kg, po; assay type: ADME, organism-based; conditions: in vivo, read-out: Vdss
[8] = target: Sodium channel protein type 5 subunit alpha (Homo sapiens, UniProt Q14524); test: Inhibition of human Nav1.5 expressed in CHO cells by ionworks patch clamp assay; assay type: cell-based
Cytochrome P450 2C8 = Cytochrome P450 2C8 (Homo sapiens, UniProt P10632); test: Inhibition of recombinant human CYP2C8; assay type: ADME
Mus musculus [9] = test: Unbound clearance in C57Bl/6J mouse administered iv or po; assay type: ADME, organism-based; conditions: in vivo
Cytochrome P450 3A4 = Cytochrome P450 3A4 (Homo sapiens, UniProt P08684); test: Inhibition of recombinant human CYP3A4; assay type: ADME
[10] = Ratio of free drug level in ApoE knockout pro-atherogenic western diet-induced Tac mouse at 75 umol/kg measured after 3 weeks to IC50 for recombinant human sPLA2-10 using human HDL as substrate; assay type: ADME; conditions: in vivo, 504 h
[11] = Lipophilicity, log D of compound at pH 7.4; conditions: buffer
Mus musculus [12] = test: Toxicity in ApoE knockout pro-atherogenic western diet-induced Tac mouse carotid artery ligation model of atherosclerosis assessed as histopathological changes in liver at 75 to 150 umol/kg/day mixed with food measured for 3 weeks by hematoxylin-eosin staining based assay; assay type: organism-based; conditions: in vivo, po, 504 h
[13] = Oral bioavailability in C57Bl/6J mouse at 50 umol/kg; assay type: ADME, organism-based; conditions: in vivo
[14] = target: T1, Phospholipase A2, membrane associated (Homo sapiens, UniProt P14555); test: Inhibition of sPLA2-2A (unknown origin) using 1-palmitoyl-2-oleoyl-sn-glycero-3-phosphocholine as substrate pretreated for 20 mins followed by substrate addition and measured after 60 mins by NEFA based assay
T1 sequence (P14555 whole entry): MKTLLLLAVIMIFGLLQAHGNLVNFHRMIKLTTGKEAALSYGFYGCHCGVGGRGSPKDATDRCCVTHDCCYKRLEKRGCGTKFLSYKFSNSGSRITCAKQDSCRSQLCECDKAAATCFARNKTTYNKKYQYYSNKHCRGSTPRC

[15] = Ratio of free drug level in ApoE knockout pro-atherogenic western diet-induced Tac mouse at 150 umol/kg measured after 1 week to IC90 for recombinant human sPLA2-10 using human HDL as substrate; assay type: ADME; conditions: in vivo, 168 h
Mus musculus [16] = test: Toxicity in ApoE knockout pro-atherogenic western diet-induced Tac mouse carotid artery ligation model of atherosclerosis assessed as histopathological changes in duodenum at 75 to 150 umol/kg/day mixed with food measured for 3 weeks by hematoxylin-eosin staining based assay; assay type: organism-based; conditions: in vivo, po, 504 h
Mus musculus [17] = test: Toxicity in ApoE knockout pro-atherogenic western diet-induced Tac mouse carotid artery ligation model of atherosclerosis assessed as histopathological changes in stomach at 75 to 150 umol/kg/day mixed with food measured for 3 weeks by hematoxylin-eosin staining based assay; assay type: organism-based; conditions: in vivo, po, 504 h
Cytochrome P450 1A2 = Cytochrome P450 1A2 (Homo sapiens, UniProt P05177); test: Inhibition of recombinant human CYP1A2; assay type: ADME
Mus musculus [18] = test: Unbound clearance in C57Bl/6J mouse at 10 umol/kg, iv or 50 umol/kg, po; assay type: ADME, organism-based; conditions: in vivo
Phospholipase A2 group V = target: T2, Phospholipase A2 group V (Homo sapiens, UniProt P39877); test: Inhibition of sPLA2-5 (unknown origin) using 1-palmitoyl-2-oleoyl-sn-glycero-3-phosphocholine as substrate pretreated for 20 mins followed by substrate addition and measured after 60 mins by NEFA based assay
T2 sequence (P39877 whole entry): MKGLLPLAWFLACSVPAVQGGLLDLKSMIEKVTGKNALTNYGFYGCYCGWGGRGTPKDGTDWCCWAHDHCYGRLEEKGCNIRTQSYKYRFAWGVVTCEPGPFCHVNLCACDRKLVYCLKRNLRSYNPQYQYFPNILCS

[19] = Ratio of free drug level in ApoE knockout pro-atherogenic western diet-induced Tac mouse at 75 umol/kg measured after 1 week to IC50 for recombinant human sPLA2-10 using human HDL as substrate; assay type: ADME; conditions: in vivo, 168 h
Cytochrome P450 2D6 = Cytochrome P450 2D6 (Homo sapiens, UniProt P10635); test: Inhibition of recombinant human CYP2D6; assay type: ADME
[20] = Ratio of free drug level in ApoE knockout pro-atherogenic western diet-induced Tac mouse at 150 umol/kg measured after 3 weeks to IC90 for recombinant human sPLA2-10 using human HDL as substrate; assay type: ADME; conditions: in vivo, 504 h
[21] = Solubility of the compound in DMSO/HBSS solution at pH 7.4 after 24 hrs by LC-UV/MS analysis; assay type: physicochemical
Cytochrome P450 2C19 = Cytochrome P450 2C19 (Homo sapiens, UniProt P33261); test: Inhibition of recombinant human CYP2C19; assay type: ADME
Mus musculus [22] = test: Toxicity in ApoE knockout pro-atherogenic western diet-induced Tac mouse carotid artery ligation model of atherosclerosis assessed as reduction in body weight at 75 to 150 umol/kg/day mixed with food measured for 3 weeks; assay type: organism-based; conditions: in vivo, po, 504 h
[23] = Inhibition of human Iks expressed in CHO cells by ionworks patch clamp assay; assay type: cell-based
[24] = Fraction unbound in C57Bl/6J mouse plasma; assay type: ADME, cell-free
Mus musculus [25] = test: Toxicity in ApoE knockout pro-atherogenic western diet-induced Tac mouse carotid artery ligation model of atherosclerosis assessed as histopathological changes in kidney at 75 to 150 umol/kg/day mixed with food measured for 3 weeks by hematoxylin-eosin staining based assay; assay type: organism-based; conditions: in vivo, po, 504 h
Cytochrome P450 2C9 = Cytochrome P450 2C9 (Homo sapiens, UniProt P11712); test: Inhibition of recombinant human CYP2C9; assay type: ADME
Mus musculus [26] = test: Toxicity in ApoE knockout pro-atherogenic western diet-induced Tac mouse carotid artery ligation model of atherosclerosis assessed as histopathological changes in heart at 75 to 150 umol/kg/day mixed with food measured for 3 weeks by hematoxylin-eosin staining based assay; assay type: organism-based; conditions: in vivo, po, 504 h
Mus musculus [27] = test: Toxicity in ApoE knockout pro-atherogenic western diet-induced Tac mouse carotid artery ligation model of atherosclerosis assessed as histopathological changes in intestine at 75 to 150 umol/kg/day mixed with food measured for 3 weeks by hematoxylin-eosin staining based assay; assay type: organism-based; conditions: in vivo, po, 504 h
[28] = target: T3, Group 10 secretory phospholipase A2 (Homo sapiens, UniProt O15496); test: Inhibition of sPLA2-10 (unknown origin) using 1-palmitoyl-2-oleoyl-sn-glycero-3-phosphocholine as substrate pretreated for 20 mins followed by substrate addition and measured after 60 mins by NEFA based assay
T3 sequence (O15496 whole entry): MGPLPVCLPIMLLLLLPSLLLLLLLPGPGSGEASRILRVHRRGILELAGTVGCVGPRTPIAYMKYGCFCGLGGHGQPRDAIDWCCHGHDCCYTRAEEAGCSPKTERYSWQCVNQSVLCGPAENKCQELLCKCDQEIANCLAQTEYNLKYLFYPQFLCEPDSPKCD

[29] = target: T3, Group 10 secretory phospholipase A2; test: Inhibition of recombinant human sPLA2-10 using human HDL as substrate pretreated for 20 mins followed by substrate addition and measured after 60 mins by NEFA based assay
[30] = target: Voltage-dependent L-type calcium channel subunit alpha-1C (Homo sapiens, UniProt Q13936); test: Inhibition of human Cav1.2 expressed in CHO cells by ionworks patch clamp assay; assay type: cell-based
[31] = target: A-type voltage-gated potassium channel KCND3 (Homo sapiens, UniProt Q9UK17); test: Inhibition of human Kv4.3 expressed in CHO cells by ionworks patch clamp assay; assay type: cell-based
[32] = target: Group 10 secretory phospholipase A2 (Mus musculus, UniProt Q9QXX3); test: Inhibition of mouse sPLA2-10
[33] = Drug metabolism in human liver microsomes in presence of glutathione after 30 mins; assay type: ADME, microsome; conditions: 0.5 h
Mus musculus [34] = test: Toxicity in ApoE knockout pro-atherogenic western diet-induced Tac mouse carotid artery ligation model of atherosclerosis assessed as effect on liver enzyme levels at 75 to 150 umol/kg/day mixed with food measured for 3 weeks; assay type: organism-based; conditions: in vivo, po, 504 h

Sequence of Cytochrome P450 3A4 (P08684 whole entry): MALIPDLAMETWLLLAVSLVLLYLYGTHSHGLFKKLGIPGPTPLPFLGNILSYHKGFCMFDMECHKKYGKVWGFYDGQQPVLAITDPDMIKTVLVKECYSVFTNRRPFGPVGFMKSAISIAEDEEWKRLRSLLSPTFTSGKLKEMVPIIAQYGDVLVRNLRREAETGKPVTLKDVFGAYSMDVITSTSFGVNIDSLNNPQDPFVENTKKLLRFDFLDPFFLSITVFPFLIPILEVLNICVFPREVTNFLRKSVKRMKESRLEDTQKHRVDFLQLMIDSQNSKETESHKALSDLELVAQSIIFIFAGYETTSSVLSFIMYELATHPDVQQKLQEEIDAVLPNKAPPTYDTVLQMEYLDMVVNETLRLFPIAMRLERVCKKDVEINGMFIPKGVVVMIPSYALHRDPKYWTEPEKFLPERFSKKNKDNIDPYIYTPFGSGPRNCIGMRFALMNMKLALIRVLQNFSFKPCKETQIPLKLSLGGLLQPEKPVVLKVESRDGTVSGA
Sequence of A-type voltage-gated potassium channel KCND3 (Q9UK17 whole entry): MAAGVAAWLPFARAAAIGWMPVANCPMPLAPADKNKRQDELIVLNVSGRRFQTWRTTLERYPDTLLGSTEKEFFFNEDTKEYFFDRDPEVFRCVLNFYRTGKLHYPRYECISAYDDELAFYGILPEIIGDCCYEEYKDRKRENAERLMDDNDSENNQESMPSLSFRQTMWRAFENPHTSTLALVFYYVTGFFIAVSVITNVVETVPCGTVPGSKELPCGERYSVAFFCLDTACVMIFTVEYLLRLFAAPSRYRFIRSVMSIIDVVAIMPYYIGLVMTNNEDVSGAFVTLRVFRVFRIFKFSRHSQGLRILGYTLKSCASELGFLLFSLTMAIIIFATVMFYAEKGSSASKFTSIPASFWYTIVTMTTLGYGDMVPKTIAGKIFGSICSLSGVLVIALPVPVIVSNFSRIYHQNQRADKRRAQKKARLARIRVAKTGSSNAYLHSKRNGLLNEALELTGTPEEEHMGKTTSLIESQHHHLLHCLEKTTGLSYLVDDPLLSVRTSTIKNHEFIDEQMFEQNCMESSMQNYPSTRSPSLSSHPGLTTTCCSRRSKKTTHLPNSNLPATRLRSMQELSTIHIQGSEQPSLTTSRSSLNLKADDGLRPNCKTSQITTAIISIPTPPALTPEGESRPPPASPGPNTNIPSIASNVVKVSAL
Sequence of Cytochrome P450 2C9 (P11712 whole entry): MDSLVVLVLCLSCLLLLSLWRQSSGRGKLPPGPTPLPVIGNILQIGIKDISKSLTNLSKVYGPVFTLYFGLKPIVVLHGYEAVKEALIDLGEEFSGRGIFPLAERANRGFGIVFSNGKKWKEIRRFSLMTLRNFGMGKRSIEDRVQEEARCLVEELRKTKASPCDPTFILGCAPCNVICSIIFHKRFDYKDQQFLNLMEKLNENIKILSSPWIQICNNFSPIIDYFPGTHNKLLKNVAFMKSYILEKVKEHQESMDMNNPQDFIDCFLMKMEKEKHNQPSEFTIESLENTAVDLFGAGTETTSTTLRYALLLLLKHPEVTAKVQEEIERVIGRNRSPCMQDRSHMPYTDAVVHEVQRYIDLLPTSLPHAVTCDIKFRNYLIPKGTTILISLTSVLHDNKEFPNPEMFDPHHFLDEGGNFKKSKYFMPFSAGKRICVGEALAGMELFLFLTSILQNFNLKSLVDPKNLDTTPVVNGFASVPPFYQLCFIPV
Sequence of Group 10 secretory phospholipase A2 (Mus musculus, UniProt Q9QXX3) (Q9QXX3 whole entry): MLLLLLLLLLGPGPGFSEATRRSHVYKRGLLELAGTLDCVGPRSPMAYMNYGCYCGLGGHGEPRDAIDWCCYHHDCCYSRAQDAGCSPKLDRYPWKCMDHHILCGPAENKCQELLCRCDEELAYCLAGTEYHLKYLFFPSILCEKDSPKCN
Sequence of Voltage-dependent L-type calcium channel subunit alpha-1C (Q13936 whole entry): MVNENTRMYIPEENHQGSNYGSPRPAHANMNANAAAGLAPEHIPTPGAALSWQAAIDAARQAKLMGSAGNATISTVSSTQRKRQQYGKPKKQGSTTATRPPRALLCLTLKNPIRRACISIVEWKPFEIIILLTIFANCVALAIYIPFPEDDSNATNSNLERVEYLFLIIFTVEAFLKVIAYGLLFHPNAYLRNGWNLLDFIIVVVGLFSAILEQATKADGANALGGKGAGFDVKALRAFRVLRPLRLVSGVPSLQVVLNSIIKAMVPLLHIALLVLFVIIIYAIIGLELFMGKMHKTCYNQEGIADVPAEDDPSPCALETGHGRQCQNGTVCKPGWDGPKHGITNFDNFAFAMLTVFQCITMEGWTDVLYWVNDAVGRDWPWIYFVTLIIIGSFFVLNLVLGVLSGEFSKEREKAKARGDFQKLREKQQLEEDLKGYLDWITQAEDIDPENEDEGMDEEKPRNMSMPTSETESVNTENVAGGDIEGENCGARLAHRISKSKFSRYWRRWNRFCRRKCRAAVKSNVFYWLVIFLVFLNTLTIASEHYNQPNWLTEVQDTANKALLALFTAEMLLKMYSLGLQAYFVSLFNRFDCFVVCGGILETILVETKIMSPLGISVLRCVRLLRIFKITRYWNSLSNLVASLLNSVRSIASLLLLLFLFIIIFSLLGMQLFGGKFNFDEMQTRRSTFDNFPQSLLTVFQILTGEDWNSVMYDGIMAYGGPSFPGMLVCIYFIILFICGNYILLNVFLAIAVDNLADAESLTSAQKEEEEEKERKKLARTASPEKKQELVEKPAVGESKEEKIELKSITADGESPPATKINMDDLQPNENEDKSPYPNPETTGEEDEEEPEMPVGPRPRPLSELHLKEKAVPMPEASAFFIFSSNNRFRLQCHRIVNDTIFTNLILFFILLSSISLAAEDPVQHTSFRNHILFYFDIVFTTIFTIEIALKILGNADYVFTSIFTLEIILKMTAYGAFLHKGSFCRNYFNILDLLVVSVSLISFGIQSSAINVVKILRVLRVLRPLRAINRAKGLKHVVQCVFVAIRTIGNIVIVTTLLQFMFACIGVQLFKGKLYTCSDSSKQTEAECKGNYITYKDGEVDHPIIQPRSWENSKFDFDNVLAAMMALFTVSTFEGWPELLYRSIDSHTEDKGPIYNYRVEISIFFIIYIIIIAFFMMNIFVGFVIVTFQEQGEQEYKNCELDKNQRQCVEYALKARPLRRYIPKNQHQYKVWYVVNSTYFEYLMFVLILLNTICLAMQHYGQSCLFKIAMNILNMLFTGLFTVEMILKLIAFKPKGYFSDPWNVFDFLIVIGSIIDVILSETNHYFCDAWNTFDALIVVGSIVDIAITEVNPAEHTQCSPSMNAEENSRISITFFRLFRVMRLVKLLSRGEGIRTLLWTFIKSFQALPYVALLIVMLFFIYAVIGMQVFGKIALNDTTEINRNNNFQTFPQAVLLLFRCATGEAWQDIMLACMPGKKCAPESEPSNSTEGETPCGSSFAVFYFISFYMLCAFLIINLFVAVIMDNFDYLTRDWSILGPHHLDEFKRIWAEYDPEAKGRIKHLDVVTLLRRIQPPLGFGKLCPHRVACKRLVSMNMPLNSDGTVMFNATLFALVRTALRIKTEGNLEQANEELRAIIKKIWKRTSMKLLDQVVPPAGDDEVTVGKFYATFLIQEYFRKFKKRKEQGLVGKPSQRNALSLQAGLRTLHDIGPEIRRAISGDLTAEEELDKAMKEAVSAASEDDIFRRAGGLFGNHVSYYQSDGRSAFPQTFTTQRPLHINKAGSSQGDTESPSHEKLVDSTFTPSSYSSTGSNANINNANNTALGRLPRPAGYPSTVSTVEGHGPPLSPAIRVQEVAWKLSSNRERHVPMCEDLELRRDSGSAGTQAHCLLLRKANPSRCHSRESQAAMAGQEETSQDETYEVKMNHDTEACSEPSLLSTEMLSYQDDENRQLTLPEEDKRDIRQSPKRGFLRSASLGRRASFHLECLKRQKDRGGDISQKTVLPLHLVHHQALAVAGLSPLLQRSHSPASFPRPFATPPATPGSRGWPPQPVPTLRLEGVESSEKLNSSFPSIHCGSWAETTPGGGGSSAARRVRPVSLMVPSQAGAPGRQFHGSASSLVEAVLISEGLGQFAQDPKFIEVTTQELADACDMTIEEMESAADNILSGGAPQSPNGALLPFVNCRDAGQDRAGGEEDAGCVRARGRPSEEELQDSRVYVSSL
Sequence of Cytochrome P450 1A2 (P05177 whole entry): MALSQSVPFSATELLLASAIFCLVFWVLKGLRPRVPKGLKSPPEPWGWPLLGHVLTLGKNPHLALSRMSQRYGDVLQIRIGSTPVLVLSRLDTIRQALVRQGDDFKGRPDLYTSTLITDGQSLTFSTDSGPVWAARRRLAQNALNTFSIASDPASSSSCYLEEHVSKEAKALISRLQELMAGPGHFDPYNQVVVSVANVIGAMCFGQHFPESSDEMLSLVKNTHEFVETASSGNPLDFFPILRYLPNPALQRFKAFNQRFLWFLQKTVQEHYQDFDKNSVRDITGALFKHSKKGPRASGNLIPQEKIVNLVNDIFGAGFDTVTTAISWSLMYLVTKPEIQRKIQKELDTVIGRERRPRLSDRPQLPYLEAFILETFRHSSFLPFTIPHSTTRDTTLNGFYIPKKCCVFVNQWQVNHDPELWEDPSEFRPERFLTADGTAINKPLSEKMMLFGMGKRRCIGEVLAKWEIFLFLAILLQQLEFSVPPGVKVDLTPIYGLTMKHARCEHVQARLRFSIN
Sequence of Cytochrome P450 2D6 (P10635 whole entry): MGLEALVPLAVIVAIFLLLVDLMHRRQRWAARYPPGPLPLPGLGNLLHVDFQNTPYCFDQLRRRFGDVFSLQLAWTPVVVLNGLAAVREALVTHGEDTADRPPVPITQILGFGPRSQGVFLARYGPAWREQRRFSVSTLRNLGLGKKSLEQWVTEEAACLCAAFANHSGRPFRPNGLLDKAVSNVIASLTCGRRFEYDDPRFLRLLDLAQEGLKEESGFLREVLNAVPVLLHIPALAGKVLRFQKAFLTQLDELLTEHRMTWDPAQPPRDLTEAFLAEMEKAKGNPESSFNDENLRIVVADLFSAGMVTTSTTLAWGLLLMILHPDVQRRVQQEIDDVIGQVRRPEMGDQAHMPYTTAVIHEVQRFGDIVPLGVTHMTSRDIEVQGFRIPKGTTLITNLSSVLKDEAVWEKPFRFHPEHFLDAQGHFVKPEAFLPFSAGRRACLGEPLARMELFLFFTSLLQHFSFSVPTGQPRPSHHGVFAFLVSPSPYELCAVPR

SMILES: CC(CC(=O)O)c1cccc(-n2c(C(N)=O)cc3ccc(OC(F)(F)F)cc32)n1 (stereo in doubt; (-)-17)
- Activity (Mus musculus [1]): Non-Toxic
- half-life [2]: > 2.88 h
- IC50 [3]: > 33 µM
- Papp [4]: 5.8 ×10⁻⁶ cm/s
- IC50 [5]: > 33 µM
- Activity (Mus musculus [6]): Non-Toxic
- Vd [7]: 0.52 L/kg
- IC50 [8]: > 33 µM
- IC50 (Cytochrome P450 2C8): > 20 µM
- CL free (Mus musculus [9]): 306 mL/min/kg
- IC50 (Cytochrome P450 3A4): > 20 µM
- Ratio [10]: > 7
- logD [11]: 0.9
- Activity (Mus musculus [12]): Non-Toxic
- bioavailability [13]: 95%
- IC50 [14]: 0.63 µM
- Ratio [15]: > 7
- Activity (Mus musculus [16]): Non-Toxic
- Activity (Mus musculus [17]): Non-Toxic
- IC50 (Cytochrome P450 1A2): > 20 µM
- CL free (Mus musculus [18]): 306 mL/min/kg
- IC50 (Phospholipase A2 group V): 5.5 µM
- Ratio [19]: > 7
- IC50 (Cytochrome P450 2D6): > 20 µM
- Ratio [20]: > 7
- solubility at 24 h [21]: 100 µM (≈ 40.7 µg/mL)
- IC50 (Cytochrome P450 2C19): > 20 µM
- Activity (Mus musculus [22]): Non-Toxic
- IC50 [23]: > 33 µM
- fraction unbound [24]: 0.05
- Activity (Mus musculus [25]): Non-Toxic
- IC50 (Cytochrome P450 2C9): > 20 µM
- Activity (Mus musculus [26]): Non-Toxic
- Activity (Mus musculus [27]): Non-Toxic
- IC50 [28]: 0.014 µM
- IC50 [29]: 0.042 µM
- IC50 [30]: > 33 µM
- IC50 [31]: > 33 µM
- IC50 [32]: 0.075 µM
- Drug metabolism [33]: Metabolite_Notdetected
- Activity (Mus musculus [34]): Non-Toxic
